Earlier results in patent EP1935412A2, “Pharmaceutical composition containing 5-chloro-1-[1-[3-(2-oxo-2,3-dihydro-1H-benzimidazol-1-yl)propyl]piperidine-4-yl]-1,3-dihydro-2H-benzimidazol-2-one and method of preparing same” (GALENIX DEVELOPPEMENT, priority 2006, dated 2008).

Conditions: dans l'eau

O=c1[nH]c2ccccc2n1CCCN1CCC(n2c(=O)[nH]c3cc(Cl)ccc32)CC1 [dompéridone, 5-chloro-1-[1-[3-(2-oxo-2,3-dihydro-1H-benzimidazol-1-yl)propyl]pipéridin-4-yl]-1,3-dihydro-2H-benzimidazol-2-one]
Solubility in water: pratiquement insoluble dans l'eau
